This is an account of results in patent US20240109881A1, “Heteroaryl Compounds as Ligand Directed Degraders of IRAK4” (Bristol-Myers Squibb Company, priority 2022, published 2024).

This test deals with T1, IRAK4 (Homo sapiens, UniProt Q9NWZ3).
T1 construct: endogenous in cells; host or cells: THP-1 cells
T1 sequence (Q9NWZ3 1-460): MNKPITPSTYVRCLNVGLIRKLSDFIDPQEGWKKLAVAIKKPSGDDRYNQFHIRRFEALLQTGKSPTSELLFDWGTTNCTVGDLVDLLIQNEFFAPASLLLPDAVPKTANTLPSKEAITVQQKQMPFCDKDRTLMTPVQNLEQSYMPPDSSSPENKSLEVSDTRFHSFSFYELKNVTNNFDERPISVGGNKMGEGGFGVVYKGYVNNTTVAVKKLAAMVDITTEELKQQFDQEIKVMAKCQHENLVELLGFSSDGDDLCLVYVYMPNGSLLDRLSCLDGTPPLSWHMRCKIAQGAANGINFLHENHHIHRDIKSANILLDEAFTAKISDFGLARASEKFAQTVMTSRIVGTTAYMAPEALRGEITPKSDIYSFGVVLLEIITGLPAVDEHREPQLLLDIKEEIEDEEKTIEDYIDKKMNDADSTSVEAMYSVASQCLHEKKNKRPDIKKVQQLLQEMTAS
Briefly: LVL THP1 HTRF (THP1 Homogeneous Time Resolved Fluorescence). The class given is cell-based. The following applies: THP1 cells, 18 h incubation with compound; for DC50: read-out: LVL THP1 HTRF EC50. In a few lines:
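THP-1 cells in phenol red-free RPMI with 10% FBS were dosed with compound (20 nL in DMSO) for 18 h at 37° C. After 2 h lysis, IRAK4 was detected with anti-IRAK4-d2/anti-IRAK4-K HTRF antibodies for 18 h at room temperature and read at 665/615 nm; a parallel CTG plate was run.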
In general terms: Time-resolved FRET reads energy transfer from a long-lived donor to a nearby acceptor.

`C[C@H](C#N)Nc1cc(-n2ncc3cc(C#N)cnc32)ncc1C(=O)N[C@H]1CC[C@H](CCN2CCC(c3ccc([C@@]4(F)CCC(=O)NC4=O)cc3)CC2)CC1` (single isomer, unassigned) [P-430]: the “LVL THP1 HTRF YMIN” value was −0.4% and the DC50 amounted to 5.5 nM.

With `C[C@H](C#N)Nc1cc(-n2ncc3cc(C#N)cnc32)ncc1-n1cc([C@H]2CC[C@H](CCN3CC[C@H]4[C@@H]3CCN4c3ccc([C@@]4(C)CCC(=O)NC4=O)cn3)CC2)nn1` (single isomer, unassigned) [P-435], the “LVL THP1 HTRF YMIN” value came out at 52.3% and the DC50 stood at 123 nM.

Turning to `C[C@H](C#N)Nc1cc(-n2ncc3cc(C#N)c(N)nc32)ncc1-n1cc([C@H]2CC[C@H](CCN3CC[C@H]4[C@@H]3CCN4c3ccc([C@@]4(C)CCC(=O)NC4=O)cc3)CC2)nn1` (single isomer, unassigned) [P-453], the “LVL THP1 HTRF YMIN” value is 0.6% and the DC50 was determined as 4.6 nM.

As to `C[C@H](C#N)Nc1cc(-n2ncc3cc(C#N)cnc32)ncc1-n1cc([C@H]2CC[C@H](CCN3CC[C@H]4[C@@H]3CCN4c3ccc([C@@]4(C)CCC(=O)NC4=O)cc3)CC2)nn1` (single isomer, unassigned) [P-454], the “LVL THP1 HTRF YMIN” value stood at 1.1% and the DC50 worked out at 13.6 nM.

With `C[C@H](C#N)Nc1cc(-n2ncc3cc(C#N)cnc32)ncc1-n1cc([C@H]2CC[C@H](CCN3CC[C@H]4[C@@H]3CCN4c3ccc(N4CCC(=O)NC4=O)c(F)c3)CC2)nn1` (single isomer, unassigned) [P-461], the “LVL THP1 HTRF YMIN” value amounted to 5.4% and the DC50 was determined as 3.7 nM.

As for `C[C@H](C#N)Nc1cc(-n2ncc3cc(C#N)cnc32)ncc1-n1cc([C@H]2CC[C@H](CCN3CC[C@H]4[C@@H]3CCN4c3ccc([C@@]4(C)CCC(=O)NC4=O)cc3)CC2)nn1` (single isomer, unassigned) [P-462], the “LVL THP1 HTRF YMIN” value amounted to 3.3% and the DC50 was determined as 6.1 nM.

`C[C@H](C#N)Nc1cc(-n2ncc3cc(C#N)cnc32)ncc1-n1cc([C@H]2CC[C@H](CCN3CC[C@H]4[C@@H]3CCN4c3ccc(N4CCC(=O)NC4=O)c(Cl)c3)CC2)nn1` (single isomer, unassigned) [P-464]: the “LVL THP1 HTRF YMIN” value is on record as −7.1% and the DC50 came to 0.7 nM.

As to `Cc1cc(N2CC[C@H]3[C@@H]2CCN3CC[C@H]2CC[C@H](c3cn(-c4cnc(-n5ncc6cc(C#N)cnc65)cc4N[C@H](C)C#N)nn3)CC2)ccc1N1CCC(=O)NC1=O` (single isomer, unassigned) [P-470], the “LVL THP1 HTRF YMIN” value worked out at 10.6% and the DC50 is 29.7 nM.

`Cc1cc(N2CC[C@H]3[C@@H]2CCN3CC[C@H]2CC[C@H](c3cn(-c4cnc(-n5ncc6cc(C#N)cnc65)cc4N[C@H](C)C#N)nn3)CC2)ccc1N1CCC(=O)NC1=O` (single isomer, unassigned) [P-474]: the “LVL THP1 HTRF YMIN” value is listed as 5.0% and the DC50 stood at 70 nM.

On to `C[C@H](C#N)Nc1cc(-n2ncc3cc(C#N)cnc32)ncc1-n1cc([C@H]2CC[C@H](CCN3CC[C@H]4[C@@H]3CCN4c3ccc(N4CCC(=O)NC4=O)c(Cl)c3)CC2)nn1` (single isomer, unassigned) [P-478], for which the “LVL THP1 HTRF YMIN” value was found to be 17.1% and the DC50 worked out at 161 nM.

In the case of `C[C@H](C#N)Nc1cc(-n2ncc3cc(C#N)cnc32)ncc1-n1cc([C@H]2CC[C@H](CCN3CC[C@H]4[C@@H]3CCN4c3ccc(N4CCC(=O)NC4=O)c(F)c3)CC2)nn1` (single isomer, unassigned) [P-480], the “LVL THP1 HTRF YMIN” value was found to be 0.8% and the DC50 was determined as 26 nM.

Regarding `C[C@H](C#N)Nc1cc(-n2ncc3cc(C#N)c(N)nc32)ncc1-n1cc([C@H]2CC[C@H](CCN3CC[C@H]4[C@@H]3CCN4c3ccc([C@@]4(C)CCC(=O)NC4=O)cc3)CC2)nn1` (single isomer, unassigned) [P-487], the “LVL THP1 HTRF YMIN” value is given as 2.7% and the DC50 stood at 8 nM.

For `C[C@H](C#N)Nc1cc(-n2ncc3cc(C#N)cnc32)ncc1C(=O)N[C@H]1CC[C@@H](CCN2CC[C@H]3[C@@H]2CCN3c2ccc(N3CCC(=O)NC3=O)c(Cl)c2)CC1` (single isomer, unassigned) [P-488], the “LVL THP1 HTRF YMIN” value amounted to 41.7% and the DC50 came to 4440 nM.

In the case of `C[C@H](C#N)Nc1cc(-n2ncc3cc(C#N)cnc32)ncc1-n1cc([C@H]2CC[C@H](CCN3CCC(c4ccc(N5CCC(=O)NC5=O)cc4)C3)CC2)nn1` (single isomer, unassigned) [P-491], the “LVL THP1 HTRF YMIN” value turned out to be 14.9% and the DC50 was found to be 156 nM.

In the case of `C[C@H](C#N)Nc1cc(-n2ncc3cc(C#N)cnc32)ncc1C(=O)N[C@H]1CC[C@H](CCN2CC[C@H]3[C@@H]2CCN3c2ccc([C@@]3(C)CCC(=O)NC3=O)cc2)CC1` (single isomer, unassigned) [P-492], the “LVL THP1 HTRF YMIN” value was −0.2% and the DC50 turned out to be 35 nM.

Consider `C[C@H](C#N)Nc1cc(-n2ncc3cc(C#N)cnc32)ncc1-n1cc([C@H]2CC[C@H](CCN3CC[C@H]4[C@@H]3CN4c3ccc(N4CCC(=O)NC4=O)cc3)CC2)nn1` (single isomer, unassigned) [P-494], for which the “LVL THP1 HTRF YMIN” value came to 21.2% and the DC50 was 110 nM.

As to `C[C@H](C#N)Nc1cc(-n2ncc3cc(C#N)cnc32)ncc1-n1cc([C@H]2CC[C@H](CCN3CC[C@@H]4[C@H]3CN4c3ccc(N4CCC(=O)NC4=O)cc3)CC2)nn1` (single isomer, unassigned) [P-495], the “LVL THP1 HTRF YMIN” value is given as 2.7% and the DC50 was determined as 110 nM.

With `C[C@H](C#N)Nc1cc(-n2ncc3cc(C#N)cnc32)ncc1-n1cc([C@H]2CC[C@H](CCN3CCC(c4ccc(N5CCC(=O)NC5=O)cc4)C3)CC2)nn1` (single isomer, unassigned) [P-497], the “LVL THP1 HTRF YMIN” value is reported as 13.6% and the DC50 was determined as 239 nM.

`C[C@H](C#N)Nc1cc(Nc2ncc(C#N)cc2Cl)ncc1-n1cc([C@H]2CC[C@H](CCN3CC[C@H]4[C@@H]3CCN4c3ccc(N4CCC(=O)NC4=O)cc3)CC2)nn1` (single isomer, unassigned) [P-500]: the “LVL THP1 HTRF YMIN” value is −0.52% and the DC50 came to 43.4 nM.

In the case of `C[C@H](C#N)Nc1cc(Nc2ncc(C#N)cc2Cl)ncc1-n1cc([C@H]2CC[C@H](CCN3CCN(c4ccc(N5CCC(=O)NC5=O)cc4)[C@@H]4COC[C@@H]43)CC2)nn1` (single isomer, unassigned) [P-503], the “LVL THP1 HTRF YMIN” value stood at 82.16% and the DC50 is 1000 nM.

`C[C@H](C#N)Nc1cc(-n2ncc3cc(C#N)cnc32)ncc1-n1cc(C2CCC(CCN3CCN(c4ccc(N5CCC(=O)NC5=O)cc4)[C@@H]4CCC[C@@H]43)CC2)nn1` (single isomer, unassigned) [P-505]: the “LVL THP1 HTRF YMIN” value was 9.83% and the DC50 was 197 nM.

`C[C@H](C#N)Nc1cc(Nc2ncc(C#N)cc2Cl)ncc1-n1cc([C@H]2CC[C@H](CCN3CCN(c4ccc(N5CCC(=O)NC5=O)cc4)[C@@H]4CCC[C@@H]43)CC2)nn1` (single isomer, unassigned) [P-506]: the “LVL THP1 HTRF YMIN” value was 65.39% and the DC50 was 1000 nM.

`C[C@H](C#N)Nc1cc(Nc2ncc(C#N)cc2F)ncc1-n1cc([C@H]2CC[C@H](CCN3CC[C@H]4[C@@H]3CCN4c3ccc(N4CCC(=O)NC4=O)cc3)CC2)nn1` (single isomer, unassigned) [P-507]: the “LVL THP1 HTRF YMIN” value is reported as −1.72% and the DC50 was 62.8 nM.

For `C[C@H](C#N)Nc1cc(-n2ncc3ccc(N4C[C@H]5C[C@@H]4CO5)nc32)ncc1-n1cc([C@H]2CC[C@H](CCN3CCC(c4ccc([C@@]5(F)CCC(=O)NC5=O)cc4)CC3)CC2)nn1` (single isomer, unassigned) [P-513], the “LVL THP1 HTRF YMIN” value is listed as 5.2% and the DC50 stood at 8 nM.

In the case of `C[C@H](C#N)Nc1cc(-n2ncc3cc(C#N)c(N)nc32)ncc1-n1cc([C@H]2CC[C@H](CCN3CCN(c4ccc([C@@]5(C)CCC(=O)NC5=O)cc4)[C@H](C)C3)CC2)nn1` (stereo in doubt) [P-260], the “LVL THP1 HTRF YMIN” value was found to be 7.6% and the DC50 amounted to 17 nM.

`C[C@H](C#N)Nc1cc(-n2ncc3cc(C#N)cnc32)ncc1-n1cc([C@H]2CC[C@H](CCN3CCC(c4ccc([C@@]5(C)CCC(=O)NC5=O)cc4)C(F)C3)CC2)nn1` (stereo in doubt) [P-310]: the “LVL THP1 HTRF YMIN” value stood at 1.3% and the DC50 was 3.6 nM.

`CC[C@H](C#N)Nc1cc(-n2ncc3cc(C#N)cnc32)ncc1-n1cc([C@H]2CC[C@H](CCN3CCN(c4ccc(C5CCC(=O)NC5=O)cc4)CC3)CC2)nn1` (stereo in doubt) [P-392]: the “LVL THP1 HTRF YMIN” value is 3.5% and the DC50 was determined as 8.7 nM.

`N#Cc1cnc2c(cnn2-c2cc(N[C@@H]3CCOC3)c(-n3cc([C@H]4CC[C@H](CCN5CCN(c6ccc(C7CCC(=O)NC7=O)cc6)CC5)CC4)nn3)cn2)c1` (stereo in doubt) [P-405]: the “LVL THP1 HTRF YMIN” value was found to be 3.1% and the DC50 turned out to be 4.8 nM.

As for `O=C1CCC(N2C(=O)c3ccc(NCCCNC(=O)C4CCC(NC(=O)c5cnc(Nc6ccc7ncsc7c6)cc5NC5CCCC5)CC4)cc3C2=O)C(=O)N1` (stereo not shown) [P-1], the “LVL THP1 HTRF YMIN” value turned out to be 33.3% and the DC50 was found to be 148 nM.
